Data: ChEMBL document CHEMBL5131391, “One-pot three-component synthesis of novel pyrazolo[3,4-b]pyridines as potent antileukemic agents” (Eur J Med Chem, 2022)

Experiments:
Assay type in all cases: functional
[1] = system: PC-3; experiment: Antiproliferative activity against human PC-3 cells assessed as growth inhibition at 10 uM measured after 48 hrs by NCI protocol based SRB assay relative to control; settings: read-out: GI
[2] = system: IGROV-1; experiment: Antiproliferative activity against human IGROV-1 cells assessed as growth inhibition at 10 uM measured after 48 hrs by NCI protocol based SRB assay relative to control; settings: read-out: GI
[3] = system: RPMI-8226; experiment: Antiproliferative activity against human RPMI-8226 cells assessed as growth inhibition at 10 uM measured after 48 hrs by NCI protocol based SRB assay relative to control; settings: read-out: GI
[4] = system: UO-31; experiment: Antiproliferative activity against human UO-31 cells assessed as growth inhibition at 10 uM measured after 48 hrs by NCI protocol based SRB assay relative to control; settings: read-out: GI
[5] = system: HCT-15; experiment: Antiproliferative activity against human HCT-15 cells assessed as growth inhibition at 10 uM measured after 48 hrs by NCI protocol based SRB assay relative to control; settings: read-out: GI
[6] = system: NCI/ADR-RES; experiment: Antiproliferative activity against human NCl/ADR-RES cells assessed as growth inhibition at 10 uM measured after 48 hrs by NCI protocol based SRB assay relative to control; settings: read-out: GI
[7] = system: K562; experiment: Antiproliferative activity against human K562 cells assessed as growth inhibition at 10 uM measured after 48 hrs by NCI protocol based SRB assay relative to control; settings: read-out: GI
[8] = system: ACHN; experiment: Antiproliferative activity against human ACHN cells assessed as growth inhibition at 10 uM measured after 48 hrs by NCI protocol based SRB assay relative to control; settings: read-out: GI
[9] = system: NCI-H522; experiment: Antiproliferative activity against human NCI-H522 cells assessed as growth inhibition at 10 uM measured after 48 hrs by NCI protocol based SRB assay relative to control; settings: read-out: GI
[10] = system: U-251; experiment: Antiproliferative activity against human U-251 cells assessed as growth inhibition at 10 uM measured after 48 hrs by NCI protocol based SRB assay relative to control; settings: read-out: GI
[11] = system: SF-268; experiment: Antiproliferative activity against human SF-268 cells assessed as growth inhibition at 10 uM measured after 48 hrs by NCI protocol based SRB assay relative to control; settings: read-out: GI
[12] = system: MDA-MB-231; experiment: Antiproliferative activity against human MDA-MB-231 cells assessed as growth inhibition at 10 uM measured after 48 hrs by NCI protocol based SRB assay relative to control; settings: read-out: GI
[13] = system: HOP-92; experiment: Antiproliferative activity against human HOP-92 cells assessed as growth inhibition at 10 uM measured after 48 hrs by NCI protocol based SRB assay relative to control; settings: read-out: GI
[14] = system: KM12; experiment: Antiproliferative activity against human KM12 cells assessed as growth inhibition at 10 uM measured after 48 hrs by NCI protocol based SRB assay relative to control; settings: read-out: GI
[15] = system: SN12C; experiment: Antiproliferative activity against human SN12C cells assessed as growth inhibition at 10 uM measured after 48 hrs by NCI protocol based SRB assay relative to control; settings: read-out: GI
[16] = system: SK-OV-3; experiment: Antiproliferative activity against human SK-OV-3 cells assessed as growth inhibition at 10 uM measured after 48 hrs by NCI protocol based SRB assay relative to control; settings: read-out: GI
[17] = system: UACC-257; experiment: Antiproliferative activity against human UACC-257 cells assessed as growth inhibition at 10 uM measured after 48 hrs by NCI protocol based SRB assay relative to control; settings: read-out: GI
[18] = system: SW-620; experiment: Antiproliferative activity against human SW-620 cells assessed as growth inhibition at 10 uM measured after 48 hrs by NCI protocol based SRB assay relative to control; settings: read-out: GI
[19] = system: HT-29; experiment: Antiproliferative activity against human HT-29 cells assessed as growth inhibition at 10 uM measured after 48 hrs by NCI protocol based SRB assay relative to control; settings: read-out: GI
[20] = system: SR; experiment: Antiproliferative activity against human SR cells assessed as growth inhibition at 10 uM measured after 48 hrs by NCI protocol based SRB assay relative to control; settings: read-out: GI
[21] = system: SF-539; experiment: Antiproliferative activity against human SF-539 cells assessed as growth inhibition at 10 uM measured after 48 hrs by NCI protocol based SRB assay relative to control; settings: read-out: GI
[22] = system: CCRF-CEM; experiment: Antiproliferative activity against human CEM cells assessed as reduction in cell viability incubated for 72 hrs by resazurin dye based assay
[23] = system: MCF7; experiment: Antiproliferative activity against human MCF7 cells assessed as growth inhibition at 10 uM measured after 48 hrs by NCI protocol based SRB assay relative to control; settings: read-out: GI
[24] = system: T47D; experiment: Antiproliferative activity against human T47D cells assessed as growth inhibition at 10 uM measured after 48 hrs by NCI protocol based SRB assay relative to control; settings: read-out: GI
[25] = system: OVCAR-4; experiment: Antiproliferative activity against human OVCAR-4 cells assessed as growth inhibition at 10 uM measured after 48 hrs by NCI protocol based SRB assay relative to control; settings: read-out: GI
[26] = system: MDA-MB-435; experiment: Antiproliferative activity against human MDA-MB-435 cells assessed as growth inhibition at 10 uM measured after 48 hrs by NCI protocol based SRB assay relative to control; settings: read-out: GI
[27] = system: NCI-H226; experiment: Antiproliferative activity against human NCI-H226 cells assessed as growth inhibition at 10 uM measured after 48 hrs by NCI protocol based SRB assay relative to control; settings: read-out: GI
[28] = system: MDA-MB-468; experiment: Antiproliferative activity against human MDA-MB-468 cells assessed as growth inhibition at 10 uM measured after 48 hrs by NCI protocol based SRB assay relative to control; settings: read-out: GI
[29] = system: SNB-75; experiment: Antiproliferative activity against human SNB-75 cells assessed as growth inhibition at 10 uM measured after 48 hrs by NCI protocol based SRB assay relative to control; settings: read-out: GI
[30] = system: K562; experiment: Antiproliferative activity against human K562 cells assessed as reduction in cell viability incubated for 72 hrs by resazurin dye based assay; settings: K562, 72 h
[31] = system: SK-MEL-5; experiment: Antiproliferative activity against human SK-MEL-5 cells assessed as growth inhibition at 10 uM measured after 48 hrs by NCI protocol based SRB assay relative to control; settings: read-out: GI
[32] = system: CCRF-CEM; experiment: Antiproliferative activity against human CCRF-CEM cells assessed as growth inhibition at 10 uM measured after 48 hrs by NCI protocol based SRB assay relative to control; settings: read-out: GI
[33] = system: OVCAR-8; experiment: Antiproliferative activity against human OVCAR-8 cells assessed as growth inhibition at 10 uM measured after 48 hrs by NCI protocol based SRB assay relative to control; settings: read-out: GI
[34] = system: NCI-H460; experiment: Antiproliferative activity against human NCI-H460 cells assessed as growth inhibition at 10 uM measured after 48 hrs by NCI protocol based SRB assay relative to control; settings: read-out: GI
[35] = system: EKVX; experiment: Antiproliferative activity against human EKVX cells assessed as growth inhibition at 10 uM measured after 48 hrs by NCI protocol based SRB assay relative to control; settings: read-out: GI
[36] = system: CAKI-1; experiment: Antiproliferative activity against human CAKI-1 cells assessed as growth inhibition at 10 uM measured after 48 hrs by NCI protocol based SRB assay relative to control; settings: read-out: GI
[37] = system: MV4-11; experiment: Antiproliferative activity against human MV4-11 cells assessed as reduction in cell viability incubated for 72 hrs by resazurin dye based assay; settings: MV4-11, 72 h
[38] = system: MOLT-4; experiment: Antiproliferative activity against human MOLT-4 cells assessed as growth inhibition at 10 uM measured after 48 hrs by NCI protocol based SRB assay relative to control; settings: read-out: GI
[39] = system: UACC-62; experiment: Antiproliferative activity against human UACC-62 cells assessed as growth inhibition at 10 uM measured after 48 hrs by NCI protocol based SRB assay relative to control; settings: read-out: GI
[40] = system: HCT-116; experiment: Antiproliferative activity against human HCT-116 cells assessed as growth inhibition at 10 uM measured after 48 hrs by NCI protocol based SRB assay relative to control; settings: read-out: GI
[41] = system: A549; experiment: Antiproliferative activity against human A549 cells assessed as growth inhibition at 10 uM measured after 48 hrs by NCI protocol based SRB assay relative to control; settings: read-out: GI
[42] = system: SNB-19; experiment: Antiproliferative activity against human SNB-19 cells assessed as growth inhibition at 10 uM measured after 48 hrs by NCI protocol based SRB assay relative to control; settings: read-out: GI
[43] = system: SK-MEL-2; experiment: Antiproliferative activity against human SK-MEL-2 cells assessed as growth inhibition at 10 uM measured after 48 hrs by NCI protocol based SRB assay relative to control; settings: read-out: GI
[44] = system: 786-0; experiment: Antiproliferative activity against human 786-0 cells assessed as growth inhibition at 10 uM measured after 48 hrs by NCI protocol based SRB assay relative to control; settings: read-out: GI

COc1cc(-c2c(C#N)c(-c3ccco3)nc3c2c(-c2ccccc2)nn3-c2ccccc2)ccc1O
inhibition of growth at 10 µM [1]: 41%
inhibition of growth at 10 µM [2]: 13%
inhibition of growth at 10 µM [3]: 21%
inhibition of growth at 10 µM [4]: 27%
inhibition of growth at 10 µM [5]: 28%
inhibition of growth at 10 µM [6]: 19%
inhibition of growth at 10 µM [7]: 32%
inhibition of growth at 10 µM [8]: 12%
inhibition of growth at 10 µM [9]: 30%
inhibition of growth at 10 µM [10]: 15%
inhibition of growth at 10 µM [11]: 25%
inhibition of growth at 10 µM [12]: 17%
inhibition of growth at 10 µM [13]: 33%
inhibition of growth at 10 µM [14]: 15%
inhibition of growth at 10 µM [15]: 18%
inhibition of growth at 10 µM [16]: 15%
inhibition of growth at 10 µM [17]: 16%
inhibition of growth at 10 µM [18]: 11%
inhibition of growth at 10 µM [19]: 15%
inhibition of growth at 10 µM [20]: 34%
inhibition of growth at 10 µM [21]: 13%
IC50 [22]: 36.5 µM
inhibition of growth at 10 µM [23]: 34%
inhibition of growth at 10 µM [24]: 34%
inhibition of growth at 10 µM [25]: 19%
inhibition of growth at 10 µM [26]: 23%
inhibition of growth at 10 µM [27]: 15%
inhibition of growth at 10 µM [28]: 14%
inhibition of growth at 10 µM [29]: 27%
IC50 [30]: 24.9 µM
inhibition of growth at 10 µM [31]: 20%
inhibition of growth at 10 µM [32]: 25%
inhibition of growth at 10 µM [33]: 15%
inhibition of growth at 10 µM [34]: 28%
inhibition of growth at 10 µM [35]: 31%
inhibition of growth at 10 µM [36]: 29%
IC50 [37]: 35.3 µM
inhibition of growth at 10 µM [38]: 47%
inhibition of growth at 10 µM [39]: 18%
inhibition of growth at 10 µM [40]: 43%
inhibition of growth at 10 µM [41]: 39%
inhibition of growth at 10 µM [42]: 13%
inhibition of growth at 10 µM [43]: 11%
inhibition of growth at 10 µM [44]: 26%
